Tests used:
FKBP52 = molecular target: T1, FKBP52 (Homo sapiens, UniProt Q02790); assay: Competitive fluorescence polarization assay, binding to FKBP52; details: for Ki: fluorescence polarization, FKBP52FK1, fluorescent tracer 20 nM final, 30 min room temperature; for FKBP52 ligand efficiency (LE): LE=(ΔG)/N, ΔG=−RTlnKi, RT=0.6, N non-hydrogen atoms
T1 construct: 400 nM FKBP51FK1, 1600 nM FKBP52FK1
T1 sequence (Q02790 50-138 limits assumed): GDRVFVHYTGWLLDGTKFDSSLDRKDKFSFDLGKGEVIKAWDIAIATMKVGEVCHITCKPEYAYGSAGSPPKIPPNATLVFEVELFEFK
Procedure: (§1) Binding of the bicyclic compounds to FKBPs was measured using a competitive fluorescence polarization
(§2) The compound library ligand was dissolved in DMSO to reach a 100-times concentrated stock solution. This was used for a 1:1 serial dilution in DMSO. […] For FKBP12, -51FK1 and -52FK1 the binding assays were performed in duplicates in the plate format. The competition curves were analyzed by using SigmaPlot11. Data were fitted to a four parameter logistic curve to deduce the IC50 values.

FKBP12 = FKBP12 (Homo sapiens, UniProt P62942); assay: Competitive fluorescence polarization assay, binding to FKBP12; details: for FKBP12 ligand efficiency (LE): LE=(ΔG)/N, ΔG=−RTlnKi, RT=0.6, N non-hydrogen atoms; for Ki: fluorescence polarization, fluorescent tracer 20 nM final, 30 min room temperature
Procedure: as §1, §2

FKBP51 = molecular target: T2, FKBP51 (Homo sapiens, UniProt Q13451); assay: Competitive fluorescence polarization assay, binding to FKBP51; details: for FKBP51 ligand efficiency (LE): LE=(ΔG)/N, ΔG=−RTlnKi, RT=0.6, N non-hydrogen atoms; for Ki: fluorescence polarization, FKBP51FK1, fluorescent tracer 20 nM final, 30 min room temperature
T2 construct: 400 nM FKBP51FK1, 1600 nM FKBP52FK1
T2 sequence (Q13451 42-130 limits assumed): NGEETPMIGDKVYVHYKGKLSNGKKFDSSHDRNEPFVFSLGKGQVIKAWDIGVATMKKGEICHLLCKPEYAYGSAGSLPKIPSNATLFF
Procedure: as §1, §2

Chain of FKBP12 (P62942 whole entry): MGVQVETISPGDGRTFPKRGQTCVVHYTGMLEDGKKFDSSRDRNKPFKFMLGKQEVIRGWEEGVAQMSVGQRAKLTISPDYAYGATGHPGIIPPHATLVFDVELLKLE

SMILES	Ki (FKBP52)	FKBP12 ligand efficiency (LE) (FKBP12)	Ki (FKBP12)	FKBP52 ligand efficiency (LE) (FKBP52)	FKBP51 ligand efficiency (LE) (FKBP51)	Ki (FKBP51)
COc1ccc(OCCOC(=O)C2CCCCN2C(=O)C(=O)c2cc(OC)c(OC)c(OC)c2)cc1OC (centres unmarked) [Compound 3a, 2-(3,4-dimethoxyphenoxyl)ethyl 1-(2-oxo-2-(3,4,5-trimethoxy-phenyl)acetyl)piperidine-2-carboxylate, reference compound]	> 100 µM	0.22	0.3 ± 0.03 µM			
COc1ccc(OCCOC(=O)C2CCCCN2S(=O)(=O)c2cc(Cl)cc(Cl)c2)cc1OC (centres unmarked) [Compound 3b, 2-(3,4-dimethoxyphenoxyl)ethyl 1-(3,5-dichlorophenyisulfonyl)-piperidine-2-carboxylate, reference compound]	> 100 µM	0.27	0.4 ± 0.006 µM			
COc1ccc(OCCOC(=O)C2CCCCN2S(=O)(=O)c2ccc3ncsc3c2)cc1OC (centres unmarked) [Compound 3c, 2-(3,4-dimethoxyphenoxyl)ethyl 1-(benzo[d]thiazol-6-ylsulfonyl)-piperidine-2-carboxylate, reference compound]	> 100 µM	0.28	0.1 ± 3e-05 µM			
CCOC(=O)C1CCCCN1S(=O)(=O)c1ccc2[nH]c(=O)sc2c1 (centres unmarked) [Compound 3d, ethyl 1-(2-oxo-2,3-dihydrobenzo[d]thiazol-6-ylsulfonyl)piperidine-2-carboxylate, reference compound]	> 100 µM	0.38	0.2 ± 0.004 µM			
COc1ccc(OCCN2CC3CCCC(C2=O)N3C(=O)C(=O)c2cc(OC)c(OC)c(OC)c2)cc1OC (centres unmarked) [Compound 4a, 1-(3-(2-(3,4-dimethoxyphenoxyl)ethyl)-2-oxo-3,9-diazabicyclo[3.3.1]nonan-9-yl)-2-(3,4,5-trimethoxyphenyl)ethane-1,2-dione, reference compound]	79.4 ± 20 µM	0.24	0.2 ± 0.01 µM	0.15	0.15	51.1 ± 7.6 µM
COc1ccc(OCCN2CC3CCCC(C2=O)N3S(=O)(=O)c2cc(Cl)cc(Cl)c2)cc1OC (centres unmarked) [Compound 4b, 9-(3,5-dichlorophenylsulfonyl)-3-(2-(3,4-dimethoxyphenoxyl)ethyl)-3,9-diazabicyclo[3.3.1]nonan-2-one]	12.2 ± 3.7 µM	0.28	0.14 ± 0.01 µM	0.20	0.21	8.8 ± 1.1 µM
COc1ccc(OCCN2CC3CCCC(C2=O)N3S(=O)(=O)c2ccc3ncsc3c2)cc1OC (centres unmarked) [Compound 4c, 9-(benzo[d]thiazol-6-ylsulfonyl)-3-(2-(3,4-dimethoxyphenoxyl)ethyl)-3,9-diazabicyclo[3.3.1]nonan-2-one]		0.24	0.9 ± 2 µM		0.17	64.8 ± 12.3 µM
COc1ccc(OCCN2CC3CCCC(C2=O)N3S(=O)(=O)c2ccc3[nH]c(=O)sc3c2)cc1OC (centres unmarked) [Compound 4d, 6-(3-(2-(3,4-dimethoxyphenoxyl)ethyl)-2-oxo-3,9-diazabicyclo[3.3.1]nonan-9-ylsulfonyl)benzo[d]thiazol-2(3H)-one]		0.28	0.07 ± 0.0004 µM		0.19	13.9 ± 0.9 µM
O=C1NCC2CCCC1N2S(=O)(=O)c1ccc2[nH]c(=O)sc2c1 (centres unmarked) [Compound 4e, 6-(2-oxo-3,9-diazabicyclo[3.3.1]nonan-9-ylsulfonyl)benzo[d]thiazol-2(3H)-one]	46.4 ± 3.8 µM	0.42	0.1 ± 0.0005 µM	0.26	0.27	27 ± 1.7 µM
CCN1CC2CCCC(C1=O)N2C(=O)C(=O)c1cc(OC)c(OC)c(OC)c1 (centres unmarked) [Compound 4g, 1-(3-ethyl-2-oxo-3,9-diazabicyclo[3.3.1]nonan-9-yl)-2-(3,4,5-trimethoxyphenyl)ethane-1,2-dione, reference compound]	> 100 µM	0.26	6.3 ± 0.02 µM			
O=C1C2CCCC(CN1c1ccccc1)N2S(=O)(=O)c1ccc(Cl)cc1 (centres unmarked) [Compound 4h]	> 100 µM					> 100 µM
COc1ccc(OCCN2CCC3CCCC(C2=O)N3S(=O)(=O)c2cc(Cl)cc(Cl)c2)cc1OC (centres unmarked) [Compound 5b, 10-(3,5-dichlorophenylsulfonyl)-3-(2-(3,4-dimethoxyphenoxy)ethyl)-3,10-diazabicyclo[4.3.1]decan-2-one]	1.6 ± 0.3 µM	0.32	0.01 ± 0.002 µM	0.23	0.23	1.2 ± 0.2 µM
COc1ccc(OCCN2CCC3CCCC(C2=O)N3S(=O)(=O)c2ccc3ncsc3c2)cc1OC (centres unmarked) [Compound 5c, 10-(benzo[d]thiazol-6-ylsulfonyl)-3-(2-(3,4-dimethoxyphenoxyl)ethyl)-3,10-diazabicyclo[4.3.1]decan-2-one]	3.6 ± 0.5 µM	0.29	0.03 ± 0.007 µM	0.21	0.22	2.1 ± 0.2 µM
COc1ccc(OCCN2CCC3CCCC(C2=O)N3S(=O)(=O)c2ccc3[nH]c(=O)sc3c2)cc1OC (centres unmarked) [Compound 5d, 6-(3-(2-(3,4-dimethoxyphenoxy)ethyl)-2-oxo-3,10-diazabicyclo[4.3.1]decan-10-ylsulfonyl)benzo[d]thiazol-2(3H)-one]	1.2 ± 0.2 µM	0.34	0.001 ± 0.0003 µM	0.22	0.24	0.3 ± 0.02 µM
O=C1NCCC2CCCC1N2S(=O)(=O)c1ccc2[nH]c(=O)sc2c1 (centres unmarked) [Compound 5e, 6-(2-oxo-3,10-diazabicyclo[4.3.1]decan-10-ylsulfonyl)benzo[d]thiazol-2(3H)-one]	22.6 ± 1 µM	0.41	0.06 ± 0.002 µM	0.27	0.29	9.8 ± 0.5 µM
CCC(C)(C)C(=O)C(=O)N1C2CCCC1C(=O)N(CCOc1ccc(OC)c(OC)c1)CC2 (centres unmarked) [Compound 5f, 1-(3-(2-(3,4-dimethoxyphenoxyl)ethyl)-2-oxo-3,10-diazabicyclo-[4.3.1]decan-10-yl)-3,3-dimethylpentane-1,2-dione, reference compound]	> 100 µM	0.24	1.5 ± 0.1 µM			> 100 µM
COc1ccc(CCN2CCC3CCCC(C2=O)N3C(=O)C(=O)c2cc(OC)c(OC)c(OC)c2)cc1OC (centres unmarked) [Compound 5h, 1-(3-(3,4-dimethoxyphenethyl)-2-oxo-3,10-diazabicyclo[4.3.1]-decan-10-yl)-2-(3,4,5-trimethoxyphenyl)ethane-1,2-dione, reference compound]	> 100 µM	0.21	1.5 ± 0.04 µM			> 100 µM
COc1ccc(OCCN2CCC3CCCC(C2=O)N3S(=O)(=O)c2cc(Cl)c(O)c(Cl)c2)cc1OC (centres unmarked) [Compound 5i, 10-(3,5-dichloro-4-hydroxyphenylsulfonyl)-3-(2-(3,4-dimethoxyphenoxyl)ethyl)-3,10-diazabicyclo[4.3.1]decan-2-one]	3.5 ± 0.4 µM	0.24	0.4 ± 0.04 µM	0.21	0.23	1 ± 0.1 µM
C=C[C@H]1CN(CCOc2ccc(OC)c(OC)c2)C(=O)[C@@H]2CCC[C@H]1N2S(=O)(=O)c1cc(Cl)cc(Cl)c1 [Compound 5k, (1S,5S,6R)-10-(3,5-dichlorophenylsulfonyl)-3-(2-(3,4-dimethoxyphenoxyl)ethyl)-5-vinyl-3,10-diazabicyclo[4.3.1]decan-2-one]						2.1 ± 0.4 µM
C=CC[C@@H]1/C=C(\C)C[C@H](C)C[C@H](OC)[C@H]2O[C@@](O)(C(=O)C(=O)N3CCCC[C@H]3C(=O)O[C@H](/C(C)=C/[C@@H]3CC[C@@H](O)[C@H](OC)C3)[C@H](C)[C@@H](O)CC1=O)[C@H](C)C[C@@H]2OC [FK 506, FK506, reference compound]						0.028 ± 0.005 µM

From patent US9371322B2, “Bicyclic aza-amides for treatment of psychiatric disorders” (MAX-PLANCK-GESELLSCHAFT ZUR FÖRDERUNG DER WISSENSCHAFTEN …, priority 2012, dated 2016)
